Source: patent publication US20250197408A1, “CRYSTALLINE FORMS AND SALTS OF A PI3K INHIBITOR AND METHODS OF MAKING AND METHODS OF USE THEREOF” (Totus Medicines Inc., priority 2022, published 2025)

What was measured:
Type in all cases: physicochemical
[1] = Variable humidity XRPD (VH-XRPD) experiments at 25° C.; conditions: VH-XRPD and DVS isotherms
Protocol: Variable humidity XRPD (VH-XRPD) experiments.
XRPD analysis was carried out in each specific relative humidity at 25° C. Step: 40% RH (initial)-60% RH (4 h)-80% RH (4 h)-40% RH (4 h)-20% RH (4 h)-0% RH (4 h)-40% RH (4 h).

[2] = Dynamic vapor sorption (DVS) analysis at 25° C.
Protocol: In one embodiment, the crystalline forms are characterized by Dynamic Vapor Sorption (DVS). The DVS profile is typically expressed by a diagram plotting the sample relative humidity (RH) versus the change in mass (%). The DVS profile provides information on hygroscopicity of the crystalline form at different RH conditions.
A DVS (dynamic vapor sorption) analysis at 25° C. was carried out on Form A** of Compound I benzenesulfonate salt as shown in FIG. 3D.

[3] = Solubility in 7 aqueous pH buffers and bio-relevant fluids at 37° C. (HPLC of supernatant; residual solids by XRPD)
Protocol: 20 mg of the free base Form A of Compound I was weighed into a 20 mL glass vial. Amounts of the salts equivalent to 20 mg anhydrous free base were weighed into a glass vial. 10 mL of solubility medium was added. The resulting suspensions/solutions were stirred at 37° C. at 400 rpm and sampled at 2 hours and at 24 hours, respectively. The samples were centrifuged at 37° C. at 14,000 rpm for 5 min. Supernatants were analyzed by HPLC and pH meter for solubility and pH value, respectively. Residual solids (wet cakes) from the 24 hours samples were also characterized by XRPD to determine physical form.
Residual solids after the solubility test were analyzed by XRPD.

[4] = ES1, pH 1.2 HCl solution (0.1N), 37° C.
[5] = ES2, pH 4.5 acetate buffer (50 mM), 37° C.
[6] = ES3, pH 6.8 phosphate buffer (50 mM), 37° C.
[7] = ES4, pH 7.4 phosphate buffer (50 mM), 37° C.

C=CC(=O)NCC(=O)N1CCN(Cc2cc3c(N4CCOCC4)nc(-c4cnc(NC(=O)OC)cc4C(F)(F)F)nn3c2)CC1.O=P(O)(O)O [Form A* of Compound I phosphate salt, Methyl (5-(6-((4-(acryloylglycyl)piperazin-1-yl)methyl)-4-morpholinopyrrolo[2,1-f][1,2,4]triazin-2-yl)-4-(trifluoromethyl)pyridin-2-yl) carbamate phosphate salt]
relative humidity at which the form dehydrates and converts to anhydrate Form B of Compound I phosphate salt [1]: < 20 % RH | hygroscopicity / water sorption behavior (DVS) [2]: slightly hygroscopic in <90% RH. Then it becomes hygroscopic | relative humidity in which it converts to hydrate form (DVS) [2]: > 30 % RH | relative humidity in which the form dehydrates (DVS) [2]: < 30 % RH | solid form of the sample after the DVS test [2]: still the Form A* of Compound I phosphate salt | water uptake (DVS) ([2]; from 40% to 95% RH): 3.3% | solubility compared among forms ([3]; 37° C., 2 h and 24 h, 7 aqueous pH buffers and bio-relevant fluids): highest solubility | Solubility for 2 h [3, 4]: 1200 µg/mL | pH of supernatant, solubility for 2 h (pH) [3, 4]: (1.2) | Solubility for 24 h [3, 4]: 1000 µg/mL | pH of supernatant, solubility for 24 h (pH) [3, 4]: (1.0) | Solubility for 2 h [3, 5]: >2000 µg/mL | pH of supernatant, solubility for 2 h (pH) [3, 5]: (4.4) | Solubility for 24 h [3, 5]: >2000 µg/mL | pH of supernatant, solubility for 24 h (pH) [3, 5]: (4.4) | Solubility for 2 h [3, 6]: 8.8 µg/mL | pH of supernatant, solubility for 2 h (pH) [3, 6]: (6.6) | Solubility for 24 h [3, 6]: 6.4 µg/mL | pH of supernatant, solubility for 24 h (pH) [3, 6]: (6.5) | Solubility for 2 h [3, 7]: 6.1 µg/mL | pH of supernatant, solubility for 2 h (pH) [3, 7]: (7.2) | Solubility for 24 h [3, 7]: 4.1 µg/mL | pH of supernatant, solubility for 24 h (pH) [3, 7]: (7.1) | Solubility for 2 h ([3]; ES5, SGF, pH 2.0, 37° C.): >2000 µg/mL | pH of supernatant, solubility for 2 h (pH) ([3]; ES5, SGF, pH 2.0, 37° C.): (1.9) | Solubility for 24 h ([3]; ES5, SGF, pH 2.0, 37° C.): >2000 µg/mL | pH of supernatant, solubility for 24 h (pH) ([3]; ES5, SGF, pH 2.0, 37° C.): (1.8) | Solubility for 2 h ([3]; ES6, FaSSIF-v1, pH 6.5, 37° C.): 26.8 µg/mL | pH of supernatant, solubility for 2 h (pH) ([3]; ES6, FaSSIF-v1, pH 6.5, 37° C.): (6.2) | Solubility for 24 h ([3]; ES6, FaSSIF-v1, pH 6.5, 37° C.): 21.1 µg/mL | pH of supernatant, solubility for 24 h (pH) ([3]; ES6, FaSSIF-v1, pH 6.5, 37° C.): (6.1) | Solubility for 2 h ([3]; ES7, FeSSIF-v1, pH 5.0, 37° C.): 1600 µg/mL | pH of supernatant, solubility for 2 h (pH) ([3]; ES7, FeSSIF-v1, pH 5.0, 37° C.): (5.0) | Solubility for 24 h ([3]; ES7, FeSSIF-v1, pH 5.0, 37° C.): 1700 µg/mL | pH of supernatant, solubility for 24 h (pH) ([3]; ES7, FeSSIF-v1, pH 5.0, 37° C.): (4.9) | maintenance of supersaturation ([3]; pH 4.5 buffer, 37° C.): can be maintained for a longer time than the crystalline Form B* of Compound I maleate salt
